From US20190160093A1, “THERAPEUTIC AGENT FOR DISEASE ACCOMPANIED BY EPILEPTIC WAVES” (TAIYO NIPPON SANSO CORPORATION, priority 2010, published 2019)
Read-outs that look alike come from different tables or passages of the source.

How the values were obtained:
[1] = Blood concentration, blood pH and blood bicarbonate ion after acetazolamide in GRY rats
[2] = test system: epileptic model rat (GRY rat); assay: Electroencephalogram spike index of epileptic model rat (GRY rat); type: in vivo; conditions: GRY rats
Description: In the present Example, a GRY rat (groggy rat, Cacnala) was used as an epileptic model rat. A GRY rat constantly develops an epileptic seizure in normal conditions, and therefore is an extremely excellent system to evaluate a seizure by subjecting the GRY rat to a treatment. The GRY rat has a mutation in an al subunit of a P/Q-type voltage-dependent calcium channel Cav2.1 which encodes Cacnala gene, and is an epileptic model rat which mainly develops ataxia and absence seizure. The GRY rat takes a mode of autosomal recessive inheritance. The 752nd nucleotide “T” of the Cacnala gene has mutated to “A”. As a result, a codon “ATG” to specify methionine which is the 251st amino acid has mutated to a codon “AAG” to specify lysine (M251K). It has been reported that this mutation is located at extracellular p-loop forming a pore of a calcium channel domain 1 and that this mutation (M251K) results in abnormality of a function of the voltage-dependent calcium ion channel Cav2.1 of the rat (Reference Literatures 1 and 2). The GRY rats with this mutation show extension abnormalities of hind limbs, walking abnormalities, and ataxia, and a seizure which is accompanied with spike and wave discharges of 7-8 Hz on the electroencephalograms from 6-8 weeks of age. The present model rats were dispensed from Institute of Laboratory Animals, Graduate School of Medicine, Kyoto University.
Male GRY rats were anesthetized by administering 35 mg/kg of pentobarbital sodium (Nembutal, Sumitomo Dainippon Pharma Co. Ltd.) intraperitoneally, and were fixed to a brain stereotaxic fixing apparatus (SR-5M, NARISHIGE Group). The head was shaved, the skin was incised along the median line, and the skull was exposed. A small hole was opened on the frontal lobe cortex and the occipital lobe cortex on both sides using a dental drill (FALCON, Morita Corporation). A stainless steel screw electrode (FUKUOKA RASHI) having a diameter of 0.9 mm and a length of 1.7 mm and connected a stainless steel wire having a diameter of 0.2 mm (M T Giken) was embedded in the hole (refer to FIG. 1). A screw electrode was embedded in the root of nose as a Z electrode, and a screw electrode was embedded in the cerebellum as an indifferent electrode. Each electrode was connected to a connector socket (Hirose Electric Co. Ltd.), and fixed to the skull with dental cement (Uni Fast II, GC Dental Products).
The rats placed in the multi-gas concentration control apparatus adjusted to a concentration of carbon dioxide of 5% (v/v), 7% (v/v), or 10% (v/v) were subjected to simultaneous video-electroencephalographic recording. Rats placed in the air were used as a control.
Electroencephalograms of the frontal lobe cortex and the occipital lobe cortex of the rats were measured using an electroencephalograph (Neurofax EEG-1200, NIHON KOHDEN CORPORATION). A spike index was used as an index of evaluation of a seizure. The spike index represents a ratio of duration of a spike in measurement time (15 minutes). The spike means a waveform indicating a sharp change in potential in a short time (refer to FIG. 3).
Carbon dioxide was administered to rats by placing the rats in the multi-gas concentration control apparatus adjusted to a concentration of carbon dioxide of 10% (v/v) (9 rats).
By placing the rats in the multi-gas concentration control apparatus, the rats were administered with 10% (v/v) carbon dioxide, and subjected to simultaneous video-electroencephalographic recording every 15 minutes for one hour, and an effect of suppressing an epileptic seizure (spike index) was measured before and after the administration of carbon dioxide.
Next, electroencephalograms were measured.

[3] = Blood pH of Kyo811 rats after febrile seizures and carbon dioxide; type: in vivo, rat; conditions: Kyo811 rats after febrile seizures, carbon dioxide 10% (v/v)
Experimental: (§1) Immediately after the seizure was induced, the rats were placed in the multi-gas concentration control apparatus adjusted to the concentration of carbon dioxide of 10% (v/v) or the concentration of the normal air, and the situation of the seizure was observed while electroencephalograms were measured continuously.
As a control, the blood pH of the rats (10 rats) before induction of febrile seizures was measured. As a result, it was confirmed that the increase in the concentration of carbon dioxide to 10% (v/v) reduced the blood pH of the rats (FIG. 14).

8-11 days-old rats = conditions: rats in a chamber containing 5% carbon dioxide; cited from earlier work
[4] = cited from earlier work
[5] = test system: epileptic model rat (Kyo811 rat); assay: Electroencephalogram and seizure duration of Kyo811 rats with febrile seizures induced by thermal load; type: in vivo; conditions: febrile seizures by warm bath at 45° C., carbon dioxide 10% (v/v) vs normal air
Description: In epilepsy, about 80% of patients of intractable Dravet syndrome (formerly, referred to as Severe Myoclonic Epilepsy in Infancy: SMEI), and about 5-10% of patients of benign generalized epilepsy with febrile seizure plus: GEFS+) have missense mutations in a voltage-dependent sodium channel a subunit type 1 (SCN1A) gene. Therefore, it is considered that the mutations in the SCN1A gene are involved in development of febrile seizures (Reference Literatures 3 and 4). In the present Reference Example, using the Kyo811 rats having a mutation in the Scn1a gene as a genetic factor, suppressive effect of seizure by carbon dioxide was examined. This rat is a febrile seizure model rat which induces febrile seizures by a thermal load, and a GEFS+ model rat.
A Kyo811 rat was prepared as a rat with a mutation in the voltage-dependent sodium channel Scn1a gene by the following technology. […]
After a one-week recovery period, the rats were put into a warm bath at 45° C. for about 3-4 minutes to induce febrile seizures, and electroencephalograms were measured.
as §1, with “continuously. […]” for “continuously.”

[6] = Blood pH and blood gas of GRY rats placed in gas containing carbon dioxide or oxygen; type: in vivo, rat
Experimental: In order to control a concentration of carbon dioxide, multi-gas incubator (MCO-5M; Sanyo Electric Co., Ltd.) was used as a multi-gas concentration control apparatus to adjust the concentration of carbon dioxide in the incubator. A concentration of oxygen was also adjusted for comparison. Main components of the normal dry air are 0.032% (v/v) of carbon dioxide, 20.946% (v/v) of oxygen, and 78.084% (v/v) of nitrogen. Therefore, using the above-described multi-gas concentration control apparatus, the concentration of carbon dioxide was set to 5% (v/v), 7% (v/v), or 10% (v/v), or the concentration of oxygen was set to 17% (v/v). When the concentration of carbon dioxide was adjusted, carbon dioxide gas supplied from a carbon dioxide gas bottle connected to the apparatus was diluted with the air outside. Therefore, carbon dioxide=10% (v/v), oxygen=about 18.85% (v/v), and nitrogen=about 70.28% (v/v). When the concentration of oxygen was set to 17% (v/v), similarly, the concentration was adjusted using nitrogen gas supplied from a nitrogen gas bottle connected to the apparatus. Therefore, carbon dioxide=0.026% (v/v), oxygen=about 17% (v/v), and nitrogen=about 82.974% (v/v). It was confirmed using a gas analyzer AGA-2008 (Astec Co. Ltd.) that each concentration in the incubator was correct under the set conditions.
The surgery of embedding an electrode for measurement of electroencephalograms was performed to eight male GRY rats (9 weeks old). After a one-week recovery period, the GRY rats were placed for one hour in the multi-gas concentration control apparatus adjusted to a concentration of carbon dioxide of 5% (v/v), 7% (v/v), or 10% (v/v), or a concentration of oxygen of 17% (v/v).
Blood samples were collected from the tail vein of the rats placed in the multi-gas concentration control apparatus, and the blood pH and the blood concentration of carbon dioxide were measured using an i-STAT analyzer (Fuso Pharmaceutical Industries, Ltd.) as a blood gas analyzer.
Carbon dioxide or oxygen was administered to rats by placing the rats in the multi-gas concentration control apparatus adjusted to a concentration of carbon dioxide of 10% (v/v) or a concentration of oxygen of 17% (v/v) for 15 minutes, 30 minutes, 45 minutes, or 60 minutes (5-6 rats for each). Rats placed in the multi-gas concentration control apparatus adjusted to a concentration of the normal air were used as a control.

[7] = 50 mg/kg intraperitoneally, 15, 30, 45 and 60 minutes after the administration, saline control
[8] = 10% (v/v) carbon dioxide for 15 to 60 minutes
[9] = carbon dioxide 5% (v/v), 7% (v/v) or 10% (v/v), one hour
[10] = concentration of oxygen 17% (v/v), one hour

## CC(=O)Nc1nnc(S(N)(=O)=O)s1 [acetazolamide, Acetazolamide]
[1]; 50 mg/kg intraperitoneally
  time after administration of highest blood concentration of acetazolamide: 15 min
[1]; [7]
  blood bicarbonate ion as compared with the control group: significantly low
  blood pH as compared with the control group: significantly low
[1]; 30 minutes after the administration of 50 mg/kg
  blood pH: 7.08±0.03
[2]; acetazolamide 50 mg/kg intraperitoneally, vs non-administration group
  spike duration of a seizure: significantly suppresses

## O=C=O [carbon dioxide]
[3]
  blood pH: reduced
8-11 days-old rats
  alkalosis in the brain: can be suppressed
[4]; concentration of 1 to 2% (v/v)
  effect of carbon dioxide gas in the air: causes discomfort
[4]; concentration of 3 to 4% (v/v)
  effect of carbon dioxide gas in the air: stimulates the respiratory center
[4]; concentration of 6 to 7% (v/v)
  effect of carbon dioxide gas in the air: makes breathing difficult
[4]; concentration of 7 to 10% (v/v)
  effect of carbon dioxide gas in the air: causes unconsciousness in a few minutes
[5]
  epileptiform discharges, duration of a spike: suppressed significantly
  seizure duration (second): suppressed significantly
[6]; [8]
  blood concentration of carbon dioxide: increased
  blood pH: reduced
[6]; [9]
  blood concentration of carbon dioxide: increased
  blood pH: reduced
[6]; environment of 10% (v/v) carbon dioxide
  blood pH: 7.27
[2]; 10% (v/v) carbon dioxide
  time the effect of suppressing a seizure lasts after the administration: ≥ 30 min
[2]; 10% (v/v) carbon dioxide, 0-15 minutes
  average spike index (spike index for 15 minutes before administration assumed to be 1): 0.0074
[2]; 10% (v/v) carbon dioxide, 16-30 minutes
  average spike index (spike index for 15 minutes before administration assumed to be 1): 0.054
[2]; 10% (v/v) carbon dioxide, 31-45 minutes
  average spike index (spike index for 15 minutes before administration assumed to be 1): 0.275
[2]; 10% (v/v) carbon dioxide, 46-60 minutes
  average spike index (spike index for 15 minutes before administration assumed to be 1): 0.416
[2]; 10% (v/v) carbon dioxide, 15 minutes after the administration
  effect of suppressing a seizure: suppress a seizure almost completely
[2]; 10% (v/v) carbon dioxide, five minutes from 25 seconds after starting vs five minutes before administration
  epileptiform discharges, duration of a spike: suppressed significantly
[2]; carbon dioxide 7% (v/v) or 10% (v/v), control rats in the air
  epileptiform discharges, duration of a spike: suppressed significantly

## O=O [oxygen, reference compound]
[6]; [10]
  blood concentration of carbon dioxide: reduced
  blood pH: increased
